Measurements reported in US20260256747A1, “ARYL-TRIAZOLYL AND RELATED GPR84 ANTAGONISTS AND USES THEREOF” (Liminal BioSciences Limited, priority 2022, published 2026).

Biological target: T1, human GPR84 receptor (Homo sapiens, UniProt Q9NQS5)
T1 construct: host or cells: HEK293 cells, transient transfection
Assay: Gαi biosensor BRET assay in HEK293 cells transfected with GPR84, stimulated with the GPR84 agonist ZQ-16
Type: cell-based
Conditions: 200 nmol/L ZQ-16; for inhibition at 10 µM / inhibition at 2 µM: HEK293, single concentration; for inhibition at 10 µM: concentration class F = 10 μM; for inhibition at 2 µM: concentration class A = 2 μM
Source text: Background—The following assays can be used for determination of GPR84 activation in living HEK293 cells. The Gαi BRET biosensor (Gagnon et al., 2018; Gales et al., 2006. Nat Struct Mol Biol. 13, 778-86; Saulieres et al., 2012. Nat Chem Biol. 8, 622-30) allows to directly monitor GPR84-mediated activation of Gαi. The Gαi biosensor consists of a Rluc8-tagged Gαi2 subunit, a GFP10-tagged Gγ2 subunit, and an untagged GB1. Agonist stimulation and GPR84 activation triggers a physical separation between the RLuc8-Gαi donor and the GFP10-Gγ2 acceptor, resulting in a decrease in BRET signal whose amplitude is correlated to ligand efficacy (Gales et al., 2006). Moreover, signaling functions of GPCRs are tightly regulated by endocytosis, the targeting of receptors to endosomes and their sorting to lysosomes or recycling to the plasma membrane. The early endosomes (EEs) trafficking assay (Namkung et al., 2016. Nat Commun. 7, 12178) uses Rluc8-tagged GPR84 and Renilla GFP (rGFP) attached to the FYVE domain from human endofin/zinc finger FYVE domain-containing protein 16, which binds phosphatidylinositol 3-phosphate in EEs. Agonist stimulation of GPR84-Rluc8 leads to trafficking of the receptor to EEs, and ensuing increase of the donor concentration relative to the rGFP-FYVE acceptor anchored in the same cellular compartment, and thus results in an increase in BRET signal.
Plasmids—The cDNA clones for human GPR84 receptor, human Gαi2, Gβ1, and Gγ2 were obtained from the cDNA Resource Center (www.cdna.org). GFP10 (F64L, S147P, S202F and H231L variant of Aequorea victoria Green Fluorescent Protein) gBlocks gene fragments (Integrated DNA Technologies, IA) and linker were inserted in frame at the N-terminus of human Gγ2. Rluc8 (A^55T, Cl24A, S130A, K136R, A^143M, M185V, M253L, and S287L variant of the Renilla reniformis luciferase) gBlocks gene fragment was inserted with linkers in frame in between residues 91 and 92 of Gαi2 or at the C-terminus of GPR84. The FYVE domain from human endofin (residues Q739 to K806) attached in frame at the C terminus of a humanized Renilla GFP (rGFP), were synthesized as gBlocks gene fragments.
Bioluminescence Resonance Energy Transfer (BRET) Measurement-HEK293 cells were transfected with GPR84-Rluc8 and rGFP-FYVE for the EEs trafficking biosensor or with GPR84, Gαi2-Rluc8, GFP10-Gγ2, and Gβ1 for the Gαi biosensor. The following day, transiently transfected cells were seeded in 96-well white clear bottom microplates coated with poly-D-lysine and left in culture for 24 hours. Cells were washed once with Tyrode's buffer (140 mmol/L NaCl, 1 mmol/L CaCl2, 2.7 mmol/L KCl, 0.49 mmol/L MgCl2, 0.37 mmol/L NaH2PO4, 5.6 mmol/L glucose, 12 mmol/L NaHCO3, and 25 mmol/L HEPES, pH 7.5) before performing assays in Tyrode's buffer. Test compounds were incubated with cells for 5 (Gai) or 15 (EEs) minutes at 37° C. before addition of 200 nmol/L of the GPR84 agonist ZQ-16 (2-(Hexylthio)-6-hydroxy-4 (3H)-pyrimidinone) for 5 minutes at room temperature (Gai) or 30 minutes at 37° C. (EEs). The Rluc8 substrate coelenterazine 400A (Prolume, Lakeside, AZ) was added at a final concentration of 5 μmol/L and BRET readings were collected using an Infinite M1000 microplate reader (Tecan, Morrisville, NC). BRET2 readings between Rluc8 and GFP10 or rGFP were collected by sequential integration of the signals detected in the 370 to 450 nm (Rluc8) and 510 to 540 nm (GFP10, rGFP) windows. The BRET signal was calculated as the ratio of light emitted by acceptor (GFP10, rGFP) over the light emitted by donor (Rluc8). The values were corrected to net BRET by subtracting the background BRET signal obtained in cells transfected with Rluc8 constructs alone. Ligand-promoted net BRET values were calculated by subtracting vehicle-induced net BRET from ligand-induced net BRET.

T1 sequence (Q9NQS5 whole entry): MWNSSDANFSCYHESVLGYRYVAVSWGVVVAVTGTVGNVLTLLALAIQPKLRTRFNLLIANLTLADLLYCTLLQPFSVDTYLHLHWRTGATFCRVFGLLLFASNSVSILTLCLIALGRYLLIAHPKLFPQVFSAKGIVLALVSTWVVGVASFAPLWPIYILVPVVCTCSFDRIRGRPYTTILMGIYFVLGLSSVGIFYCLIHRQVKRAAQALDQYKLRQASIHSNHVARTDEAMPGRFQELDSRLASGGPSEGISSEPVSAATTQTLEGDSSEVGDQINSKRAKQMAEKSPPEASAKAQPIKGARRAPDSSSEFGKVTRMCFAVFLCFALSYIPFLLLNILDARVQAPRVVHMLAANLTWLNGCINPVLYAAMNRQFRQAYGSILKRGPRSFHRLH

Row | SMILES | IC50 [nM] | inhibition at 10 µM [%] | inhibition at 2 µM [%]
1 | CCc1cc(C#CCNS(C)(=O)=O)ccc1-c1cn(CC2OCC(C)(C)CO2)nn1 [Compound I-1, N-(3-(4-(1-((5,5-dimethyl-1,3-dioxan-2-yl)methyl)-1H-1,2,3-triazol-4-yl)-3-ethylphenyl)prop-2-ynyl)methanesulfonamide] | 300 to 1000 | > 75 | –
2 | CCc1cc(C#CCN)ccc1-c1cn(CC2OCC(C)(C)CO2)nn1 [Compound I-2] | 300 to 1000 | > 75 | –
3 | CC1(C)COC(Cn2cc(-c3ccc(C#CCOC4CC4)cc3C3CC3)nn2)OC1 [Compound I-3] | 300 to 1000 | > 75 | –
4 | C(#Cc1ccc(-c2cn(CC3OCC4(CC4)CO3)nn2)c(C2CC2)c1)COC1CC1 [Compound I-4] | 300 to 1000 | – | > 75
5 | CC(O)C1CN(c2ccc(-c3cn(CC4OCC5(CC5)CO4)nn3)c(N(C)C)c2)C1 (centres unmarked) [Compound I-5, 1-(1-(4-(1-(5,7-dioxaspiro[2.5]octan-6-ylmethyl)-1H-1,2,3-triazol-4-yl)-3-(dimethylamino)phenyl)azetidin-3-yl)ethanol] | – | > 75 | –
6 | C(#CC1CCC1)c1cnc(-c2cn(CC3OCC4(CC4)CO3)nn2)c(OC2CC2)c1 [Compound I-6] | – | – | > 75
7 | CN(C)c1cc(N2CC3(CC(O)C3)C2)ccc1-c1cn(CC2OCC3(CC3)CO2)nn1 (centres unmarked) [Compound I-7, 2-(4-(1-(5,7-dioxaspiro[2.5]octan-6-ylmethyl)-1H-1,2,3-triazol-4-yl)-3-(dimethylamino)phenyl)-2-azaspir[3.3]heptan-6-ol] | – | > 75 | –
8 | CC(C)(O)C#Cc1cnc(-c2cn(CC3OCC(C)(C)CO3)nn2)c(OC2CC2)c1 [Compound I-8] | 300 to 1000 | > 75 | –
9 | C(#Cc1cnc(-c2cn(CC3OCC4(CC4)CO3)nn2)c(OC2CC2)c1)CN1CC2(CC2)C1 [Compound I-9] | ≤ 300 | – | > 75
10 | CC1(C)COC(Cn2cc(-c3ncc(C(=O)NCc4cnccn4)cc3OC3CC3)nn2)OC1 [Compound I-10] | – | ≤ 25 | –
11 | Cc1ccc(C2CC2)nc1-c1cn(CC2OCC(C)(C)CO2)nn1 [Compound I-11] | – | – | ≤ 25
12 | Cc1cc(C#CC2CC2)ccc1-c1cn(Cc2cncs2)nn1 [Compound I-12] | – | – | ≤ 25
13 | Cc1cc(C#CC2CC2)ccc1-c1cn(Cc2cocn2)nn1 [Compound I-13] | – | ≤ 25 | –
14 | CC1(C)COC(Cn2cc(-c3ncc(C#N)cc3OC3CC3)nn2)OC1 [Compound I-14] | 300 to 1000 | > 75 | –
15 | CC(=O)NCC#Cc1cnc(-c2cn(CC3OCC(C)(C)CO3)nn2)c(OC2CC2)c1 [Compound I-15] | ≤ 300 | – | > 75
16 | FC1(F)CC12CN(CC#Cc1cnc(-c3cn(CC4OCC5(CC5)CO4)nn3)c(OC3CC3)c1)C2 [Compound I-16] | ≤ 300 | – | > 75
17 | c1nc(-c2cn(CC3OCC4(CC4)CO3)nn2)c(OC2CC2)cc1N1CC2(CC2)C1 [Compound I-17] | 300 to 1000 | > 75 | –
18 | FC1(F)CC12CN(c1cnc(-c3cn(CC4OCC5(CC5)CO4)nn3)c(OC3CC3)c1)C2 [Compound I-18] | – | 25 to 50 | –
19 | Cc1cc(C#CC2CC2)ccc1-c1cn(Cc2cscn2)nn1 [Compound I-19] | – | – | ≤ 25
20 | c1nc(-c2cn(CC3OCC4(CC4)CO3)nn2)c(OC2CC2)cc1N1CC2(COC2)C1 [Compound I-20] | – | > 75 | –
21 | CC1(C)COC(Cn2cc(-c3ncc(C#CCNC4COC4)cc3OC3CC3)nn2)OC1 [Compound I-21] | ≤ 300 | – | > 75
22 | OC1CC2(C1)CN(CC#Cc1cnc(-c3cn(CC4OCC5(CC5)CO4)nn3)c(OC3CC3)c1)C2 (centres unmarked) [Compound I-22] | ≤ 300 | – | > 75

Row | SMILES | IC50 [nM] | inhibition at 10 µM [%] | inhibition at 2 µM [%]
23 | CN(C)C(=O)Cn1cc(-c2ncc(C#CC3CC3)cc2OC2CC2)nn1 [Compound I-23, 2-(4-(3-cyclopropoxy-5-(cyclopropylethynyl)pyridin-2-yl)-1H-1,2,3-triazol-1-yl)-N,N-dimethylacetamide] | 1000 to 3000 | > 75 | –
24 | CN(C)C(=O)Cn1cc(-c2ccc(N3CC(C)(CO)C3)cc2N(C)C)nn1 [Compound I-24] | 1000 to 3000 | > 75 | –
25 | CN(C)c1cc(N2CC3(COC3)C2)c(F)cc1-c1cn(CC2OCC3(CC3)CO2)nn1 [Compound I-25] | ≤ 300 | – | > 75
26 | CC1(CO)CN(c2cnc(-c3cn(CC4CC5(CC5)CO4)nn3)c(OC3CC3)c2)C1 (centres unmarked) [Compound I-26] | – | > 75 | –
27 | CC1(CO)CN(c2cnc(-c3cn(CC4OCC(F)(F)CO4)nn3)c(OC3CC3)c2)C1 [Compound I-27] | – | 50 to 75 | –
28 | CN(C)c1cc(C#CC2(O)CC2)ccc1-c1cn(CC2OCC(C)(C)CO2)nn1 [Compound I-28] | ≤ 300 | – | > 75
29 | CC1(C)COC(Cn2cc(C#Cc3ccc(C4CC4)cc3)nn2)OC1 [Compound I-29] | – | ≤ 25 | –
30 | CC(O)C1(C)CN(c2ccc(-c3cn(CC4OCC5(CC5)CO4)nn3)c(N(C)C)c2)C1 (centres unmarked) [Compound I-30] | ≤ 300 | – | > 75
31 | OC1CC2(C1)CN(c1cnc(-c3cn(CC4OCC5(CC5)CO4)nn3)c(OC3CC3)c1)C2 (centres unmarked) [Compound I-31] | ≤ 300 | > 75 | –
32 | CC1(C)COC(Cn2cc(C#Cc3ccncc3)nn2)OC1 [Compound I-32] | – | ≤ 25 | –
33 | Cc1cc(C#CC2CC2)ccc1-c1cn(Cc2cnco2)nn1 [Compound I-33] | – | ≤ 25 | –
34 | CC1(C)COC(Cn2cc(-c3ncc(C#CC4(O)CC4)cc3OC3CC3)nn2)OC1 [Compound I-34] | ≤ 300 | – | > 75
35 | OC1(C#Cc2cnc(-c3cn(CC4OCC5(CC5)CO4)nn3)c(OC3CC3)c2)CC1 [Compound I-35] | ≤ 300 | – | > 75
36 | CC1(C)COC(Cn2cc(-c3ncc(C#CCNS(C)(=O)=O)cc3OC3CC3)nn2)OC1 [Compound I-36] | ≤ 300 | – | > 75
37 | CCc1cc(C#CC(N)=O)ccc1-c1cn(CC2OCC(C)(C)CO2)nn1 [Compound I-37] | ≤ 300 | > 75 | –
38 | CC1(C)COC(Cn2cc(-c3ncc(C#CCNC4CC(F)(F)C4)cc3OC3CC3)nn2)OC1 [Compound I-38] | ≤ 300 | – | > 75
39 | CN(C)c1cc(N2CC(C)(CO)C2)ccc1-c1cn(CC2OCC(C)(C)CO2)cn1 [Compound I-39] | 300 to 1000 | > 75 | –
40 | CC1(C)COC(Cn2cc(-c3ncc(CC#N)cc3OC3CC3)nn2)OC1 [Compound I-40] | – | 50 to 75 | –
41 | CN(C)c1cc(N2CC(C)(CO)C2)ccc1-c1cn(CC2OCC3(CC3)CO2)cn1 [Compound I-41] | ≤ 300 | – | > 75
42 | CN(C)c1cc(N2CC3(COC3)C2)ccc1-c1cn(CC2OCC3(CC3)CO2)cn1 [Compound I-42] | – | > 75 | –
43 | CC1(C)COC(Cn2ncc(C#Cc3ccncc3)n2)OC1 [Compound I-43] | – | ≤ 25 | –
